The numbers were not newly measured in US9597342B2 (UWM Research Foundation, Inc., priority 2011, dated 2017), which cites them from elsewhere.

In general, Ki refers to the equilibrium dissociation constant of an inhibitor or competing ligand from its target.

The structures appear in SMILES notation.

Series [1] addresses all four diazepam-sensitive GABAA receptors. Particulars: Huang et al., J. Med. Chem. 2000; cited from earlier work.
Series [2] has as its target T1, GABAA/α2 (Homo sapiens, UniProt P18507+P47869).
T1 sequence (P47869 29-451): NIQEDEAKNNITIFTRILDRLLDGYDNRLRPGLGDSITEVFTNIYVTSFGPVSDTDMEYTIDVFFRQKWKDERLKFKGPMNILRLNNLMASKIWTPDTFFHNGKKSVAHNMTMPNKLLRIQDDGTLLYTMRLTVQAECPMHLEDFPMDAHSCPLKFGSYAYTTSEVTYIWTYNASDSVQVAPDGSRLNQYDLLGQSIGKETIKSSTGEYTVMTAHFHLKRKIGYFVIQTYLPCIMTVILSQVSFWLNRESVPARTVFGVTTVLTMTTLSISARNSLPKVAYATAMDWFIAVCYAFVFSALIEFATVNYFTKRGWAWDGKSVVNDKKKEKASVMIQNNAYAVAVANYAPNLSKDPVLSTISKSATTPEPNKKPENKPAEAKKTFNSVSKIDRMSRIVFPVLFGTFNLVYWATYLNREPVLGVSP
T1 sequence (P18507 40-467 limits assumed): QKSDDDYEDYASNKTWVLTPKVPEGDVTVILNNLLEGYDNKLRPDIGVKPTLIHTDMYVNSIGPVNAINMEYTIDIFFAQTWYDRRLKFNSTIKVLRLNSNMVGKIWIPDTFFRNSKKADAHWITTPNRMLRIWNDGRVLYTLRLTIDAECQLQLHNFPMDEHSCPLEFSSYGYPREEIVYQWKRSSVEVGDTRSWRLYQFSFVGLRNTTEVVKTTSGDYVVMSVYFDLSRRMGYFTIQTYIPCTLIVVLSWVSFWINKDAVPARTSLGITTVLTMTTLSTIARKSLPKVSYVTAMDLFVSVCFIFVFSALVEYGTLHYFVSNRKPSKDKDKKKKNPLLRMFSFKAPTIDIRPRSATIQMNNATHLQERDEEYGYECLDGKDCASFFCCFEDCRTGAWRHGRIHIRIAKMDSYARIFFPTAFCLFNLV
T1 sequence (P28472 26-473 partner): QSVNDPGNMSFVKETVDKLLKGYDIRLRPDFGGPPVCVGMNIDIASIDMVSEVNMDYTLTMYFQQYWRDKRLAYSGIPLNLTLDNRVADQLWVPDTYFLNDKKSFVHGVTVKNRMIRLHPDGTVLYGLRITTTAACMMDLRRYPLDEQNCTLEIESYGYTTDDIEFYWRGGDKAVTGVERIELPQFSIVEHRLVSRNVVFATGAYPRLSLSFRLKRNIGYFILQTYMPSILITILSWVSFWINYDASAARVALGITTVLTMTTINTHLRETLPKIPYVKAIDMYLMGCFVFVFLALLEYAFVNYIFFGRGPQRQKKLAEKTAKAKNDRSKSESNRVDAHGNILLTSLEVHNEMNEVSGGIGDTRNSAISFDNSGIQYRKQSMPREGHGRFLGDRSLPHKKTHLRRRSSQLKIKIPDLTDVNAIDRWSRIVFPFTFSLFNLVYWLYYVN
As to conditions: intermediate affinity; Huang et al., J. Med. Chem. 2000; cited from earlier work.

Series [3] has as its target T2, GABAA/α5 receptors (Homo sapiens, UniProt P18507+P31644).
T2 sequence (P31644 32-462): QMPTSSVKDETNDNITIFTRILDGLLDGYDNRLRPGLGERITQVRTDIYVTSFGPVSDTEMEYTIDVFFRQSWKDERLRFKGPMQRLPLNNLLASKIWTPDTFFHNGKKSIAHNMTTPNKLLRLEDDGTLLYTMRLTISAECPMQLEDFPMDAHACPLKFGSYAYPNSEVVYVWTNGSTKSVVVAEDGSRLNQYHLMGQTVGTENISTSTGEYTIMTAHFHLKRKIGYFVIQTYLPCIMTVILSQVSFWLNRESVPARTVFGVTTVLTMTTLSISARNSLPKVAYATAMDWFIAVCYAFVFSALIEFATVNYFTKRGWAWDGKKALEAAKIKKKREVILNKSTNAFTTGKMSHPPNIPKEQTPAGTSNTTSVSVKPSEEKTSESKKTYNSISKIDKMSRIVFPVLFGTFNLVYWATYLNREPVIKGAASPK
T2 sequence (P18507 40-467 limits assumed): T1 sequence (P18507 40-467 limits assumed)
T2 sequence (P28472 26-473 partner): T1 sequence (P28472 26-473 partner)
As to conditions: high affinity; Huang et al., J. Med. Chem. 2000; cited from earlier work.

Series [4] deals with T3, GABAA/α1 receptors (Homo sapiens, UniProt P14867+P18507).
T3 sequence (P14867 28-456): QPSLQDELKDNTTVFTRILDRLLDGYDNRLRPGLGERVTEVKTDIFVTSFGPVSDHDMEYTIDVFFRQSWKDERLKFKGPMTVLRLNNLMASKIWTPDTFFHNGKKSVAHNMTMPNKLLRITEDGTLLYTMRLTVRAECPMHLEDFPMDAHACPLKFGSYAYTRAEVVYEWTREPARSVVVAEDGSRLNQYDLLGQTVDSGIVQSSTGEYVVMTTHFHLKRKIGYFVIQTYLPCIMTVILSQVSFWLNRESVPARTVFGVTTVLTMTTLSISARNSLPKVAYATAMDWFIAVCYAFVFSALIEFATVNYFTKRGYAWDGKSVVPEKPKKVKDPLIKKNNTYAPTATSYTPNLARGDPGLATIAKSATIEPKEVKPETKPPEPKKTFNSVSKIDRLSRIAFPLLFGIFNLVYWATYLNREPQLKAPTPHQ
T3 sequence (P18507 40-467 limits assumed): T1 sequence (P18507 40-467 limits assumed)
T3 sequence (P28472 26-473 partner): T1 sequence (P28472 26-473 partner)
Particulars: poorer affinity; Huang et al., J. Med. Chem. 2000; cited from earlier work.

Series [5] deals with T4, GABAA/α3 (Homo sapiens, UniProt P18507+P34903).
T4 sequence (P34903 29-492): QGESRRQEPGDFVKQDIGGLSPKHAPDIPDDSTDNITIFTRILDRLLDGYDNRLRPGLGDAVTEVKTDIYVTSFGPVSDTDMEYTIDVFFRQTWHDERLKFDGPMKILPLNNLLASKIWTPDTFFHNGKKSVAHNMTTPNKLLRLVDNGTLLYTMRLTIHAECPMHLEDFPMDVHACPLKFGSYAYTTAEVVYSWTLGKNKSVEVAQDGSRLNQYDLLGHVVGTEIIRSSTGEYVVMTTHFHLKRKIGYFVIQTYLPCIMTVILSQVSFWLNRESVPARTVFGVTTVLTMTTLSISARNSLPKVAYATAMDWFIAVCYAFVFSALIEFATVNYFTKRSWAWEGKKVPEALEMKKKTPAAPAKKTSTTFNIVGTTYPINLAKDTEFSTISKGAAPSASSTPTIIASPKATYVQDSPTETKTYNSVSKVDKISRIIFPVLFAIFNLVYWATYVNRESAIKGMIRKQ
T4 sequence (P18507 40-467 limits assumed): T1 sequence (P18507 40-467 limits assumed)
T4 sequence (P28472 26-473 partner): T1 sequence (P28472 26-473 partner)
Particulars: intermediate affinity; Huang et al., J. Med. Chem. 2000; cited from earlier work.

Consider `CN1C(=O)CN=C(c2ccccc2)c2cc(Cl)ccc21` [diazepam], for which the Ki in series [1] is below 25 nM.

For the molecule `C#Cc1ccc2c(c1)C(c1ccccc1)=NCC(=O)N2C` [QH-ii-066], the inhibition constant Ki was below 50 nM in series [2], below 10 nM in series [3], above 70 nM in series [4] and below 50 nM in series [5].
